According to PubChem BioAssay (NCI):
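96-well plates; 48 h exposure; 5 concentrations. Endpoints by linear interpolation between flanking doses. Not reached: highest tested concentration assigned. The concentration for full growth arrest is given as TGI.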 Where a SMILES comes first, the peptide text is derived from it. The star is where a group is joined. Pentanoyl = CCCCC(=O)*; Boc = CC(C)(C)OC(=O)*

Assays:
Assay in all cases: DTP human tumour cell line panel, 48 h
NCI/ADR-RES ovarian = system: NCI/ADR-RES ovarian
OVCAR-4 ovarian = system: OVCAR-4 ovarian
COLO 205 colon = system: COLO 205 colon
PC-3 prostate = system: PC-3 prostate
SK-OV-3 ovarian = system: SK-OV-3 ovarian
CCRF-CEM leukemia = system: CCRF-CEM leukemia
NCI-H460 lung = system: NCI-H460 lung
SF-295 CNS = system: SF-295 CNS
MDA-N = system: MDA-N
NCI-H522 lung = system: NCI-H522 lung
A549 NSCLC = system: A549 NSCLC
HS 578T breast = system: HS 578T breast
A498 renal = system: A498 renal
EKVX NSCLC = system: EKVX NSCLC
HCT-116 colon = system: HCT-116 colon
UACC-62 melanoma = system: UACC-62 melanoma
SN12C renal = system: SN12C renal
MALME-3M melanoma = system: MALME-3M melanoma
SR leukemia = system: SR leukemia

SMILES	TGI (NCI/ADR-RES ovarian) [µM]	TGI (OVCAR-4 ovarian) [µM]	TGI (COLO 205 colon) [µM]	TGI (PC-3 prostate) [µM]	TGI (SK-OV-3 ovarian) [µM]	TGI (CCRF-CEM leukemia) [µM]	TGI (NCI-H460 lung) [µM]	TGI (SF-295 CNS) [µM]	TGI (MDA-N) [µM]	TGI (NCI-H522 lung) [µM]	TGI (A549 NSCLC) [µM]	TGI (HS 578T breast) [µM]	TGI (A498 renal) [µM]	TGI (EKVX NSCLC) [µM]	TGI (HCT-116 colon) [µM]	TGI (UACC-62 melanoma) [µM]	TGI (SN12C renal) [µM]	TGI (MALME-3M melanoma) [µM]	TGI (SR leukemia) [µM]
COc1ccc2c(c1)c1c(n2CCN(C)C)-c2cccc(OC)c2CC1	47.3	46.9	27.7	24.2	35	15.1	41.5	35.9	26.1	15.6	40.9	33.5	44.9	35	50.3	34.6	35.5	–	–
O=C(O)c1ccc([N+]2=Cn3c(nc4ccccc43)C2)cc1	> 100	> 100	> 100	> 100	> 100	> 100	> 100	> 100	> 100	> 100	> 100	> 100	> 100	> 100	> 100	> 100	> 100	3.05	–
O=C1c2ccccc2-c2c1c(-c1ccc([N+](=O)[O-])cc1)nc1ccc3ccccc3c21	> 100	> 100	> 100	> 100	> 100	> 100	> 100	> 100	> 100	–	> 100	> 100	> 100	> 100	> 100	> 100	> 100	> 100	–
O=P1(c2ccccc2)c2ccccc2CCc2ccccc21	–	–	> 100	> 100	> 100	> 100	–	> 100	> 100	> 100	> 100	> 100	–	> 100	> 100	> 100	> 100	–	–
O=C1C(C(c2ccccc2)N2CCOCC2)=C(O)C(c2ccccc2)N1c1ccccc1 (centres undefined)	> 10	–	> 10	> 10	> 10	> 10	> 10	> 10	> 10	> 10	> 10	> 10	> 10	> 10	> 10	> 10	> 10	> 10	–
COc1ccc(/C=C2\N=C3Sc4c(nc[nH]c4=O)N3C2=O)cc1	> 100	> 100	> 100	> 100	> 100	> 100	–	> 100	> 100	> 100	> 100	> 100	> 100	> 100	> 100	–	> 100	> 100	–
CCOC(=O)N(c1ccccc1)c1cc(=O)n2ccccc2n1	> 100	> 100	> 100	–	> 100	> 100	> 100	> 100	–	–	> 100	–	> 100	> 100	> 100	> 100	> 100	> 100	> 100
CN(Cc1cnc2nc(N)nc(N)c2n1)c1ccc(C(=O)NCS(=O)(=O)O)cc1	> 100	> 100	> 100	> 100	> 100	–	> 100	> 100	> 100	> 100	> 100	> 100	> 100	> 100	> 100	> 100	> 100	> 100	–
CC(=O)OC(C)c1cc2c(s1)C(=O)c1scc(C(C)OC(C)=O)c1C2=O (centres undefined)	0.802	0.583	1	–	4.33	–	0.344	0.323	0.256	0.571	4.06	1.41	1.26	2.2	0.838	0.418	–	0.288	–
CCCCCC[C@H]1CC(=O)C2CCCC[C@@]23CC[C@H](CCl)N13 (some centres undefined) (tested in a mixture with another compound)	–	> 100	–	90.6	> 100	90.5	> 100	> 100	–	37.5	> 100	60.4	> 100	> 100	> 100	> 100	> 100	> 100	–
Nc1ccc(N=Nc2ccc(-c3ccc(O)cc3)cc2)c2ccc(S(=O)(=O)O)cc12	> 100	> 100	> 100	> 100	> 100	> 100	> 100	> 100	–	> 100	> 100	> 100	> 100	> 100	> 100	> 100	> 100	> 100	> 100
COCc1cc2c(cc1/C(=C/[N+](=O)[O-])CS(=O)(=O)c1ccccc1)OCO2	> 100	–	> 100	–	> 100	> 100	> 100	> 100	> 100	> 100	> 100	> 100	> 100	> 100	> 100	> 100	> 100	–	> 100
CCCCC(=O)Oc1ccc(CC(NC(=O)OC(C)(C)C)C(=O)NC(C)C(=O)NC(Cc2ccccc2)C(=O)NCC(N)=O)cc1 (centres undefined) (Boc-Y(Pentanoyl)AFG-NH2; configuration not given here)	> 100	> 100	37.6	> 100	> 100	> 100	> 100	> 100	65.8	39.5	> 100	> 100	> 100	–	47.1	45.5	> 100	> 100	–
CCCCCCCCOC(CO)CO	–	> 100	> 100	–	> 100	> 100	> 100	> 100	–	–	> 100	–	> 100	–	> 100	> 100	> 100	> 100	> 100
CC(=O)C1=C(C)Cn2c(=O)c3ccccc3c(=O)n2C1	–	> 100	> 100	–	> 100	> 100	> 100	> 100	–	> 100	> 100	–	> 100	> 100	> 100	–	> 100	> 100	> 100
COC(=O)[C@]12CSC[C@H]1C[C@H](c1ccccc1OC)N2	> 100	> 100	> 100	> 100	> 100	> 100	> 100	> 100	> 100	> 100	> 100	–	> 100	> 100	> 100	> 100	> 100	> 100	> 100
COC(=O)C1C(OC(=O)C(Cl)(c2ccccc2)c2ccccc2)CC2CCC1N2C (centres undefined)	> 100	–	> 100	> 100	> 100	> 100	–	> 100	> 100	> 100	> 100	–	–	> 100	> 100	> 100	> 100	> 100	> 100
CCN(CC)CCCNc1nc(=O)[nH]c(C)c1C(=O)Nc1c2ccccc2nc2ccccc12	45.7	86.3	23.5	> 100	59	> 100	–	27.3	23.7	21.3	44.2	–	31.8	74.5	21.7	36.4	> 100	45.1	–
O=C(O)c1ccc(-c2nc3ccc(Cl)cc3[nH]2)cc1	> 100	–	> 100	> 100	> 100	> 100	–	> 100	–	> 100	> 100	> 100	–	> 100	–	–	> 100	–	> 100
O=c1oc2ccccc2c(O)c1C1c2c(c3ccccc3oc2=O)Oc2c1c(=O)oc1ccccc21	> 100	> 100	> 100	> 100	–	> 100	31.7	–	37.3	> 100	–	> 100	> 100	> 100	> 100	47.5	73.3	> 100	–
Cc1n[nH]c(=O)n1/N=C/c1cccs1	> 100	> 100	> 100	> 100	> 100	> 100	> 100	> 100	> 100	–	> 100	> 100	> 100	> 100	> 100	> 100	> 100	> 100	–
O=c1ssc(Cl)c1Nc1c(Cl)ssc1=O	71.4	35.8	31.5	37.9	59	> 23.5	34.6	> 100	–	60.5	49.8	> 100	31.7	41.4	33.9	> 55	37.9	37.7	15
